According to patent publication USRE31731E, “Herbicidal 4-trifluoromethyl-4-nitrodiphenyl ethers” (priority 1978, dated 1984):

The compounds below were run on Dicots (assay: Herbicidal activity, postemergence, dicot weeds (Table II)). Conditions: post-emergence, 336 h, 2 lb./A., about 2 weeks, read-out: % control (percent of plants killed).
Type: in vivo
Protocol: (§1) Using the procedure described below, diphenyl ethers were evaluated for control of the following weeds: […]
(§2) bindweed (Convolvulus arvensis) curly dock (Remex crispus) velvetleaf (Abutilon theophrasti) wild mustard (Brassica haber)
(§3) At 2 and 4 pounds per acre: […]
(§4) cocklebur (Xanthium pensylvanicum)
(§5) **coffeeweed (Sesbania macrocarpa)
(§6) *curly dock (Rumex crispus)
(§7) *lambsquarters (Chenopodium album) morningglory (Ipomoea purpurea)
(§8) *pigweed (Amaranthus retroflexus)
(§9) **ragweed (Ambrosia artemisiifolia)
(§10) *smartweed (Polygonum pensylvanicum)
(§11) **tomato (Lycopersicon esculentum)
(§12) *wild carrot (Daucus carota)
(§13) *wild mustard (Brassica haber)
(§14) The following test procedure is employed. Seeds of selected crops and weeds are planted in soil in flats. For preemergence tests, the flats are treated with the test compound immediately after the planting. For postemergence tests, the seeds are allowed to germinate, and after 2 weeks the flats are treated with the test compound. The compound to be evaluated is dissolved in acetone, diluted with water, and sprayed over the flats using a carrier volume equivalent to 50 gallons per acre at the rate of application (pounds per acre, lb/A.) specified in the tables. About 2 weeks after the application of the test compound, the state of growth of the plants is observed and the phytotoxic effect of the compound is evaluated. Table II gives the average percent control achieved by the test compounds in terms of the percent of the plants which are killed by the compounds.

| Compound | pest or weed control at 2241.7 g/ha [%] |
| --- | --- |
| CCOc1cc(Oc2ccc(C(F)(F)F)cc2C#N)ccc1[N+](=O)[O-] [Example 7, 2-Cyano-α,α,α-trifluoro-p-tolyl-3-ethoxy-4-nitrophenyl ether] | 80 |
| CCOC(=O)COc1cc(Oc2ccc(C(F)(F)F)cc2Cl)ccc1[N+](=O)[O-] [Example 24] | 100 |
| O=[N+]([O-])c1ccc(Oc2ccc(C(F)(F)F)cc2Cl)cc1OCCO [Example 15, 2-chloro-α,α,α-trifluoro-p-tolyl-3-(2-hydroxyethoxy)-4-nitrophenyl ether] | 94 |
| O=[N+]([O-])c1ccc(Oc2ccc(C(F)(F)F)cc2Cl)cc1N1CCOCC1 [Example 28, 2-chloro-α,α,α-trifluoro-p-tolyl-3-morpholino-4-nitrophenyl ether] | 100 |

Same assay, conditions: post-emergence, 336 h, 4 lb./A., about 2 weeks, read-out: % control (percent of plants killed)

| Compound | pest or weed control at 4483.4 g/ha [%] |
| --- | --- |
| CCOc1cc(Oc2ccc(C(F)(F)F)cc2C#N)ccc1[N+](=O)[O-] [Example 7, 2-Cyano-α,α,α-trifluoro-p-tolyl-3-ethoxy-4-nitrophenyl ether] | 77 |
| CCOC(=O)COc1cc(Oc2ccc(C(F)(F)F)cc2Cl)ccc1[N+](=O)[O-] [Example 24] | 99 |
| O=[N+]([O-])c1ccc(Oc2ccc(C(F)(F)F)cc2Cl)cc1OCCO [Example 15, 2-chloro-α,α,α-trifluoro-p-tolyl-3-(2-hydroxyethoxy)-4-nitrophenyl ether] | 99 |
| O=[N+]([O-])c1ccc(Oc2ccc(C(F)(F)F)cc2Cl)cc1N1CCOCC1 [Example 28, 2-chloro-α,α,α-trifluoro-p-tolyl-3-morpholino-4-nitrophenyl ether] | 99 |

Same assay, conditions: post-emergence, 336 h, 10 lb./A., about 2 weeks, read-out: % control (percent of plants killed)

| Compound | pest or weed control at 11208.5 g/ha [%] |
| --- | --- |
| CCOc1cc(Oc2ccc(C(F)(F)F)cc2C#N)ccc1[N+](=O)[O-] [Example 7, 2-Cyano-α,α,α-trifluoro-p-tolyl-3-ethoxy-4-nitrophenyl ether] | 100 |

What follows are compounds tested on Dicots (assay: Herbicidal activity, preemergence, dicot weeds (Table II)). Conditions: pre-emergence, 336 h, 2 lb./A., about 2 weeks, read-out: % control (percent of plants killed).
Type: in vivo
Protocol: as §1, §2, §3, §4, §5, §6, §7, §8, §9, §10, §11, §12, §13, §14

| Compound | pest or weed control at 2241.7 g/ha [%] |
| --- | --- |
| CCOc1cc(Oc2ccc(C(F)(F)F)cc2C#N)ccc1[N+](=O)[O-] [Example 7, 2-Cyano-α,α,α-trifluoro-p-tolyl-3-ethoxy-4-nitrophenyl ether] | 54 |
| CCOC(=O)COc1cc(Oc2ccc(C(F)(F)F)cc2Cl)ccc1[N+](=O)[O-] [Example 24] | 97 |
| O=[N+]([O-])c1ccc(Oc2ccc(C(F)(F)F)cc2Cl)cc1OCCO [Example 15, 2-chloro-α,α,α-trifluoro-p-tolyl-3-(2-hydroxyethoxy)-4-nitrophenyl ether] | 90 |
| O=[N+]([O-])c1ccc(Oc2ccc(C(F)(F)F)cc2Cl)cc1N1CCOCC1 [Example 28, 2-chloro-α,α,α-trifluoro-p-tolyl-3-morpholino-4-nitrophenyl ether] | 79 |

Same assay, conditions: pre-emergence, 336 h, 4 lb./A., about 2 weeks, read-out: % control (percent of plants killed)

| Compound | pest or weed control at 4483.4 g/ha [%] |
| --- | --- |
| CCOc1cc(Oc2ccc(C(F)(F)F)cc2C#N)ccc1[N+](=O)[O-] [Example 7, 2-Cyano-α,α,α-trifluoro-p-tolyl-3-ethoxy-4-nitrophenyl ether] | 57 |
| CCOC(=O)COc1cc(Oc2ccc(C(F)(F)F)cc2Cl)ccc1[N+](=O)[O-] [Example 24] | 68 |
| O=[N+]([O-])c1ccc(Oc2ccc(C(F)(F)F)cc2Cl)cc1OCCO [Example 15, 2-chloro-α,α,α-trifluoro-p-tolyl-3-(2-hydroxyethoxy)-4-nitrophenyl ether] | 100 |
| O=[N+]([O-])c1ccc(Oc2ccc(C(F)(F)F)cc2Cl)cc1N1CCOCC1 [Example 28, 2-chloro-α,α,α-trifluoro-p-tolyl-3-morpholino-4-nitrophenyl ether] | 95 |

Same assay, conditions: pre-emergence, 336 h, 10 lb./A., about 2 weeks, read-out: % control (percent of plants killed)

| Compound | pest or weed control at 11208.5 g/ha [%] |
| --- | --- |
| CCOc1cc(Oc2ccc(C(F)(F)F)cc2C#N)ccc1[N+](=O)[O-] [Example 7, 2-Cyano-α,α,α-trifluoro-p-tolyl-3-ethoxy-4-nitrophenyl ether] | 60 |

What follows are compounds tested on Monocots (assay: Herbicidal activity, preemergence, monocot weeds (Table II)). Conditions: pre-emergence, 336 h, 2 lb./A., about 2 weeks, read-out: % control (percent of plants killed).
Type: in vivo
Protocol: as §1
(§15) barnyardgrass (Echinochloa crusgalli) crabgrass (Digitaria spp.) nutsedge (Cyperus esculentus)
(§16) At 2 and 4 pounds per acre:
(§17) **Bermudagrass (Cynodon dactylon)
(§18) *downy brome (Bromus tectorum) foxtail (Setaria faberii)
(§19) Johnsongrass (Sorghum halepense) […]
(§20) quackgrass (Agropyron repens)
(§21) *ryegrass (Lolium perenne)
(§22) *yellow millet (Panicum miliaceum)
as §14

| Compound | pest or weed control at 2241.7 g/ha [%] |
| --- | --- |
| CCOc1cc(Oc2ccc(C(F)(F)F)cc2C#N)ccc1[N+](=O)[O-] [Example 7, 2-Cyano-α,α,α-trifluoro-p-tolyl-3-ethoxy-4-nitrophenyl ether] | 65 |
| CCOC(=O)COc1cc(Oc2ccc(C(F)(F)F)cc2Cl)ccc1[N+](=O)[O-] [Example 24] | 62 |
| O=[N+]([O-])c1ccc(Oc2ccc(C(F)(F)F)cc2Cl)cc1OCCO [Example 15, 2-chloro-α,α,α-trifluoro-p-tolyl-3-(2-hydroxyethoxy)-4-nitrophenyl ether] | 68 |
| O=[N+]([O-])c1ccc(Oc2ccc(C(F)(F)F)cc2Cl)cc1N1CCOCC1 [Example 28, 2-chloro-α,α,α-trifluoro-p-tolyl-3-morpholino-4-nitrophenyl ether] | 79 |

Same assay, conditions: pre-emergence, 336 h, 4 lb./A., about 2 weeks, read-out: % control (percent of plants killed)

| Compound | pest or weed control at 4483.4 g/ha [%] |
| --- | --- |
| CCOc1cc(Oc2ccc(C(F)(F)F)cc2C#N)ccc1[N+](=O)[O-] [Example 7, 2-Cyano-α,α,α-trifluoro-p-tolyl-3-ethoxy-4-nitrophenyl ether] | 65 |
| CCOC(=O)COc1cc(Oc2ccc(C(F)(F)F)cc2Cl)ccc1[N+](=O)[O-] [Example 24] | 91 |
| O=[N+]([O-])c1ccc(Oc2ccc(C(F)(F)F)cc2Cl)cc1OCCO [Example 15, 2-chloro-α,α,α-trifluoro-p-tolyl-3-(2-hydroxyethoxy)-4-nitrophenyl ether] | 99 |
| O=[N+]([O-])c1ccc(Oc2ccc(C(F)(F)F)cc2Cl)cc1N1CCOCC1 [Example 28, 2-chloro-α,α,α-trifluoro-p-tolyl-3-morpholino-4-nitrophenyl ether] | 74 |

Same assay, conditions: pre-emergence, 336 h, 10 lb./A., about 2 weeks, read-out: % control (percent of plants killed)

| Compound | pest or weed control at 11208.5 g/ha [%] |
| --- | --- |
| CCOc1cc(Oc2ccc(C(F)(F)F)cc2C#N)ccc1[N+](=O)[O-] [Example 7, 2-Cyano-α,α,α-trifluoro-p-tolyl-3-ethoxy-4-nitrophenyl ether] | 61 |

Each compound was assayed on Monocots (assay: Herbicidal activity, postemergence, monocot weeds (Table II)). Conditions: post-emergence, 336 h, 2 lb./A., about 2 weeks, read-out: % control (percent of plants killed).
Type: in vivo
Protocol: as §1, §15, §16, §17, §18, §19, §20, §21, §22, §14

| Compound | pest or weed control at 2241.7 g/ha [%] |
| --- | --- |
| CCOc1cc(Oc2ccc(C(F)(F)F)cc2C#N)ccc1[N+](=O)[O-] [Example 7, 2-Cyano-α,α,α-trifluoro-p-tolyl-3-ethoxy-4-nitrophenyl ether] | 82 |
| CCOC(=O)COc1cc(Oc2ccc(C(F)(F)F)cc2Cl)ccc1[N+](=O)[O-] [Example 24] | 84 |
| O=[N+]([O-])c1ccc(Oc2ccc(C(F)(F)F)cc2Cl)cc1OCCO [Example 15, 2-chloro-α,α,α-trifluoro-p-tolyl-3-(2-hydroxyethoxy)-4-nitrophenyl ether] | 76 |
| O=[N+]([O-])c1ccc(Oc2ccc(C(F)(F)F)cc2Cl)cc1N1CCOCC1 [Example 28, 2-chloro-α,α,α-trifluoro-p-tolyl-3-morpholino-4-nitrophenyl ether] | 73 |

Same assay, conditions: post-emergence, 336 h, 4 lb./A., about 2 weeks, read-out: % control (percent of plants killed)

| Compound | pest or weed control at 4483.4 g/ha [%] |
| --- | --- |
| CCOc1cc(Oc2ccc(C(F)(F)F)cc2C#N)ccc1[N+](=O)[O-] [Example 7, 2-Cyano-α,α,α-trifluoro-p-tolyl-3-ethoxy-4-nitrophenyl ether] | 75 |
| CCOC(=O)COc1cc(Oc2ccc(C(F)(F)F)cc2Cl)ccc1[N+](=O)[O-] [Example 24] | 86 |
| O=[N+]([O-])c1ccc(Oc2ccc(C(F)(F)F)cc2Cl)cc1OCCO [Example 15, 2-chloro-α,α,α-trifluoro-p-tolyl-3-(2-hydroxyethoxy)-4-nitrophenyl ether] | 79 |
| O=[N+]([O-])c1ccc(Oc2ccc(C(F)(F)F)cc2Cl)cc1N1CCOCC1 [Example 28, 2-chloro-α,α,α-trifluoro-p-tolyl-3-morpholino-4-nitrophenyl ether] | 73 |

Same assay, conditions: post-emergence, 336 h, 10 lb./A., about 2 weeks, read-out: % control (percent of plants killed)

| Compound | pest or weed control at 11208.5 g/ha [%] |
| --- | --- |
| CCOc1cc(Oc2ccc(C(F)(F)F)cc2C#N)ccc1[N+](=O)[O-] [Example 7, 2-Cyano-α,α,α-trifluoro-p-tolyl-3-ethoxy-4-nitrophenyl ether] | 100 |
